Laboratory results: PMC9059125 (Journal of Medicinal Chemistry, 2022)
Read-outs that look alike come from different tables or passages of the source. *1 amine or outer side, *2 acyl side, *3 side chain or, on linkers, in order; H or OH if unused. Where a SMILES comes first, the peptide text is derived from it. Bridges are numbered along the chain shown (N, C = ends). X1 = O=C(CCC[*:2])[*:1]

Experiments:
[1] = simulated gi fluid, pH 1.2
[2] = simulated gi fluid, pH 6.8
[3] = molecular target: T1, human oxytocin receptor (OTR) (Homo sapiens, UniProt P30559); test: NIMH PDSP FLIPR-TETRA Ca2+-mobilization assay; type: cell-based
T1 construct: NIMH PDSP (data provider)
T1 sequence (P30559 1-389): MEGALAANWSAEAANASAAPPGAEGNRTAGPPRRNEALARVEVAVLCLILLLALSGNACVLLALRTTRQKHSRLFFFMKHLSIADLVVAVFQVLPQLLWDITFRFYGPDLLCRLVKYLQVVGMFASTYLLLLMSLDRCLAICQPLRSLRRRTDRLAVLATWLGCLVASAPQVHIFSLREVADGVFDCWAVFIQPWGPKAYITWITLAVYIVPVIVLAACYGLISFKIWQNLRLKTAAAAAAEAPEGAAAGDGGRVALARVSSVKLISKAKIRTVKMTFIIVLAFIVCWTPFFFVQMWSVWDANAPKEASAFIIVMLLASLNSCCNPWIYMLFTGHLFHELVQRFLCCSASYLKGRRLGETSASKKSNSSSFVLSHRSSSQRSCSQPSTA

[4] = molecular target: T2, hOTR (Homo sapiens, UniProt P30559); test: cell-based
T2 construct: expressed in transfected cells; host or cells: COS-1 cells (ATCC), transient transfection with FuGENE HD
T2 sequence (P30559 1-389): T1 sequence (P30559 1-389)

[5] = in vitro; details: pig, simulated gi fluid, pH 6.8

SMILES	t1/2 SGF [1] [h]	t1/2 SIF ([2]; pig) [h]	t1/2 SIF [2] [h]	other results
CC[C@H](C)[C@@H]1NC(=O)[C@H](Cc2ccc(OC)cc2)NC(=O)CCCSC[C@@H](C(=O)N2CCC[C@H]2C(=O)N[C@@H](CC(C)C)C(=O)NCC(N)=O)NC(=O)[C@H](CC(N)=O)NC(=O)[C@H](CCC(N)=O)NC1=O [Carbetocin, reference compound] (Y(Me)IQNCPLG-NH2; linker N-5 via X1)	>24	0.217 ± 0.017	–	–
NC(=O)CC[C@@H]1NC(=O)[C@H](Cc2ccccc2)NC(=O)[C@H](Cc2ccc(O)cc2)NC(=O)[C@@H](N)CSSC[C@@H](C(=O)N2CCC[C@H]2C(=O)N[C@@H](CCCN=C(N)N)C(=O)NCC(N)=O)NC(=O)[C@H](CC(N)=O)NC1=O [Vasopressin, reference compound]	>24	–	<0.05	–
CC[C@H](C)[C@@H]1NC(=O)[C@H](Cc2ccc(O)cc2)NC(=O)[C@@H](N)CSSC[C@@H](C(=O)N2CCC[C@H]2C(=O)N[C@@](C)(CC(C)C)C(=O)NCC(N)=O)NC(=O)[C@H](CC(N)=O)NC(=O)[C@H](CCC(N)=O)NC1=O [(Cα-Me)L^8OT]	–	4.4 ± 0.3	–	EC50 [3]: 3.8 ± 2.7 nM; Emax ± SEM OTR [3]: 105 ± 11; bioactivity at OTR compared to native OT [3]: equipotent to native OT
CC[C@H](C)[C@@H]1NC(=O)[C@H](Cc2ccc(O)cc2)NC(=O)[C@@H](N)CSSC[C@@H](C(=O)N2CCC[C@H]2C(=O)N[C@@H](CC(C)C)C(=O)NCC(N)=O)NC(=O)[C@H](CC(N)=O)NC(=O)[C@H](CCC(N)=O)NC1=O [Oxytocin, reference compound]	>24	0.13 ± 0.017	–	–
CC[C@H](C)[C@@H]1NC(=O)[C@H](Cc2ccc(O)cc2)NC(=O)[C@@H](N)CSSC[C@@H](C(=O)N2CCC[C@H]2C(=O)N[C@@H](CC(C)C)C(=O)NNC(N)=O)NC(=O)[C@H](CC(N)=O)NC(=O)[C@H](CCC(N)=O)NC1=O [G^9(aza)OT]	–	–	<0.05	EC50 [3]: 2.24 ± 0.63 nM; Emax ± SEM OTR [3]: 111 ± 6
CC[C@H](C)[C@@H]1NC(=O)[C@H](Cc2ccc(O)cc2)NC(=O)[C@@H]2CSSC[C@@H]3NC(=O)[C@H]([C@@H](C)CC)NC(=O)[C@@H]4CCCN4C(=O)[C@H](Cc4c[nH]c5ccccc45)NC(=O)[C@H](CO)NC(=O)[C@@H]4CSSC[C@H](NC(=O)[C@H]([C@@H](C)O)NC(=O)[C@H](CCC(=O)O)NC(=O)CNC(=O)[C@H](CSSC[C@H](NC(=O)[C@H](CC(N)=O)NC(=O)[C@H]([C@@H](C)O)NC1=O)C(=O)N[C@@H]([C@@H](C)O)C(=O)N4)NC(=O)[C@H](C(C)C)NC(=O)[C@@H]1CCCN1C(=O)[C@H](CC(C)C)NC(=O)CNC(=O)[C@H](CC(N)=O)NC(=O)[C@H](CCCNC(=N)N)NC(=O)[C@H](CCCCN)NC3=O)C(=O)N[C@@H]([C@@H](C)O)C(=O)N[C@@H](CC(C)C)C(=O)NCC(=O)N[C@@H]([C@@H](C)O)C(=O)N2 [KB7(T^4G^7OT^[2-5])]	–	–	>24	EC50 [4]: > 10000 nM
CC[C@H](C)[C@@H]1NC(=O)[C@H](Cc2ccc(O)cc2)NC(=O)[C@@H]2CSSC[C@@H]3NC(=O)[C@H](C(C)C)NC(=O)[C@@H]4CCCN4C(=O)[C@H](Cc4c[nH]c5ccccc45)NC(=O)[C@H](CO)NC(=O)[C@@H]4CSSC[C@H](NC(=O)[C@H]([C@@H](C)O)NC(=O)[C@H](CCC(=O)O)NC(=O)CNC(=O)[C@H](CSSC[C@H](NC(=O)[C@H](CC(N)=O)NC(=O)[C@H]([C@@H](C)O)NC1=O)C(=O)N[C@@H]([C@@H](C)O)C(=O)N4)NC(=O)[C@H](C(C)C)NC(=O)[C@@H]1CCCN1C(=O)[C@H](CC(C)C)NC(=O)CNC(=O)[C@H](CC(N)=O)NC(=O)[C@H](CCCNC(=N)N)NC(=O)[C@H]([C@@H](C)O)NC3=O)C(=O)N[C@@H](C(C)C)C(=O)NCC(=O)NCC(=O)N[C@@H]([C@@H](C)O)C(=O)N2 [KB1(T^4G^7OT^[2-5])]	–	–	>24	EC50 [4]: > 10000 nM
CC(C)C[C@@H]1NC(=O)CNC(=O)[C@H](CC(N)=O)NC(=O)[C@H](CCCNC(=N)N)NC(=O)[C@H]([C@@H](C)O)NC(=O)[C@@H]2CSSC[C@@H]3NC(=O)[C@H]([C@@H](C)O)NC(=O)CNC(=O)CNC(=O)[C@H](C(C)C)NC(=O)[C@@H]4CSSC[C@H](NC(=O)[C@H]([C@@H](C)O)NC(=O)[C@H](CSSC[C@H](NC(=O)[C@H](C(C)C)NC(=O)[C@@H]5CCCN5C1=O)C(=O)NCC(=O)N[C@@H](CCC(=O)O)C(=O)N[C@@H]([C@@H](C)O)C(=O)N4)NC(=O)CNC(=O)[C@@H]1CCCN1C(=O)[C@H]([C@@H](C)O)NC(=O)[C@H](CC(N)=O)NC3=O)C(=O)N[C@@H](CO)C(=O)N[C@@H](Cc1c[nH]c3ccccc13)C(=O)N1CCC[C@H]1C(=O)N[C@@H](C(C)C)C(=O)N2 [Kalata B1, reference compound]	>24	–	>24	–
CC[C@H](C)[C@@H]1NC(=O)[C@H](Cc2ccc(O)cc2)NC(=O)[C@@H](N)CSSC[C@@H](C(=O)N2CCC[C@H]2C(=O)N[C@H](CC(=O)NCC(N)=O)CC(C)C)NC(=O)[C@H](CC(N)=O)NC(=O)[C@H](CCC(N)=O)NC1=O [(β^3-homo)L^8OT]	–	3.6 ± 0.1	–	–
CC[C@H](C)[C@@H]1NC(=O)[C@@H]2CSSC[C@H](NC(=O)[C@H](CCCNC(=N)N)NC(=O)[C@@H]3CSSC[C@H](NC1=O)C(=O)N[C@@H]([C@@H](C)O)C(=O)N[C@@H](CCCNC(=N)N)C(=O)NCC(=O)N[C@@H](Cc1ccccc1)C(=O)N3)C(=O)N[C@@H](CC(C)C)C(=O)N[C@H]1CSSC[C@H](NC(=O)[C@H](C(C)C)NC(=O)CNC(=O)[C@H](CCCNC(=N)N)NC(=O)[C@H](CCCNC(=N)N)NC1=O)C(=O)N[C@@H](CCCNC(=N)N)C(=O)N2 [RTD-1] (HELM PEPTIDE1{G.F.C.R.C.L.C.R.R.G.V.C.R.C.I.C.T.R}$PEPTIDE1,PEPTIDE1,3:R3-16:R3|PEPTIDE1,PEPTIDE1,5:R3-14:R3|PEPTIDE1,PEPTIDE1,7:R3-12:R3|PEPTIDE1,PEPTIDE1,1:R1-18:R2$$$V2.0)	2.2 ± 0.3	–	0.05 ± 0.017	half-life [5]: < 3 min
CC(C)C[C@@H]1NC(=O)[C@H](CCC(=O)O)NC(=O)[C@@H](NC(=O)[C@H](CCC(=O)O)NC(=O)[C@H](CC(=O)O)NC(=O)[C@H](N)CC(N)=O)CSSC[C@@H]2NC(=O)[C@H](C)NC(=O)[C@H](C(C)C)NC(=O)[C@H](CC(N)=O)NC(=O)[C@H](C(C)C)NC(=O)[C@H](CSSC[C@@H](C(=O)N[C@H](CC(C)C)C(=O)O)NC(=O)CNC(=O)[C@H]([C@@H](C)O)NC2=O)NC1=O [Dolcanatide, reference compound]	>24	–	>24	–
CC(C)C[C@H](NC(=O)[C@@H]1CSSC[C@@H]2NC(=O)[C@H](CC(C)C)NC(=O)[C@H](CCC(=O)O)NC(=O)[C@@H](NC(=O)[C@H](CCC(=O)O)NC(=O)[C@H](CC(=O)O)NC(=O)[C@@H](N)CC(N)=O)CSSC[C@H](NC(=O)[C@H](C)NC(=O)[C@H](C(C)C)NC(=O)[C@H](CC(N)=O)NC(=O)[C@H](C(C)C)NC2=O)C(=O)N[C@@H]([C@@H](C)O)C(=O)NCC(=O)N1)C(=O)O [Plecanatide, reference compound]	>24	0.083 ± 0.017	–	–
